Data published in patent EP3114111B1, “BICYCLIC PYRROLE DERIVATIVES USEFUL AS AGONISTS OF GPR120” (Janssen Pharmaceutica NV, priority 2014, dated 2015).

What was measured:
[1] = test system: DIO Mice; experiment: GPR120 DIO Mice OGTT Screening; type: in vivo, C57BI6 mice; details: for DIO Lowering Glucose AUC: DIO mice OGTT; for Lowering Glucose AUC: DIO Dose Response
Experimental: 18-22 week old, C57BI6 mice on a high fat diet (60% HFD) for 12-16 weeks (ave. body weight ∼ 37-41g) were fasted for 6hr, with removal of food occurring at 7 am on the morning of the study. The animals were sorted into treatment groups the day before the study by body weight. Animals outside the bounds of ∼30-50g were left out of the study. The animals had been handled and shammed a total of 5-8 days (1-3 days immediately prior to the study). Glucose (in 1ml syringes) was drawn up the morning of the study. Test compounds were kept spinning and were only drawn into 1ml syringes prior to study commencement. Animals were bled via tail snip to determine basal glucose levels prior to dosing of treatments. An Ascensia BREEZE Blood Glucose Monitoring System by Bayer was used for determining glucose levels.
Animals were moved into the testing room at ∼9-11am, to yield them time to acclimate. The bleeds and dosing started at approximately 1pm in 30-second intervals per animal. All groups were dosed 30 minutes prior to glucose administration at a dose volume of 10ml/kg (the dose volume was calculated separately for each individual animal). Test compounds were administered at two or more of the following dosages: 0.1 mg/kg, 0.3 mg/kg, 1 mg/kg, 3 mg/kg, 10 mg/kg and 30 mg/kg.
Thirty minutes after the first dose (with test compound) animals were bled again for a second baseline, or T=0, and immediately dosed with glucose (20% solution; TEKNOVA, 250ml sterile bottle w/ catalogue number G0525) via a PO injection. The exact dose volume for glucose was also calculated separately for each individual animal.
Blood glucose was measured at 15, 30, 45, 60, and 90 minutes post-glucose administration via the snipped tail. If an animal reached a value of "HI", the upper limit of the glucometer (600mg/dl) was substituted as the blood glucose value and the study was analyzed as normal with no exclusions. If 50% or more of any treatment group reaches a "HI" value at least once, the study was considered invalid and repeated. Glucose values were typed into an EXCEL spreadsheet where they were used to calculate glucose AUC and delta AUC post-compound and post-glucose. The glucose excursion curves and the different versions of the AUC's were graphed in GraphPad Prism 5.
Note: All statistics completed in this study were completed using the statistical software package GraphPad Prism 5. Standard procedures for analyzing data sets from screening GPR120 compounds in DIO mouse OGTT's were as listed here below. In addition to the statistics that were run using GraphPad Prism 5, Microsoft Excel was used to calculate the percent changes in AUC from vehicle groups as detailed below.
Change from -30 to 0 BSLN Glucose, Raw Glucose AUC -30 to 90min, Delta Glucose AUC -30 to 90min, Raw Glucose AUC 0 to 90min, Delta Glucose AUC 0 to 90min were analyzed using Column Statistics Analysis, with mean values used to calculate % change from the vehicle mean group, as well as mean, SEM and / or % change from vehicle, where appropriate; and using One-Way ANOVA w/ a Tukey Post-Test (Comparing All Pairs of Columns) with each treatment group examined to see if it was statistically significant compared to vehicle (*= P<0.05, **= P<0.01, ***= P<0.001).

[2] = test system: C57bl6 Mouse; experiment: GPR120 C57bl6 Mouse IPGTT; type: in vivo, C57bl/6J Mice
Experimental: Male, C57bl/6J Mice were ordered in at 8 weeks of age from Jackson Labs. Individual mice weighed anywhere in the range of 25-30 grams on study day. The mice were fasted, with removal of food occurring at 7am on the morning of the study. Animals were moved into the room at 10:00am, to give them time to acclimate. Glucose (insulin syringes) was drawn up either the night before or the morning of the study. Glucose was dosed (IP) at 1.5g/kg at 7.5ml/kg (20% glucose straight TEKNOVA, 250ml sterile bottle w/ catalogue number G0525). Test compounds were kept spinning and were only drawn into the syringes prior to study commencement. Animals were bled via tail snip to determine basal glucose levels prior to dosing of treatments. An Ascensia BREEZE Blood Glucose Monitoring System by Bayer (using unique 10-test disks) was used for determining glucose levels. The bleeds started at approximately 12:45pm and dosing started, at 1-minute intervals, immediately after. All groups were dosed 30 minutes prior to glucose administration at a dose volume of 10ml/kg (the dose volume was calculated separately for each individual animal). Thirty minutes after the first dose animals were bled again for a second baseline, or T=0, and immediately dosed with glucose via an i.p. injection. The exact dose volume for glucose was also calculated separately for each individual animal. Glucose measurements were taken at -30min prior to compound dose, at t=0 (immediately prior to glucose dose), and at 15, 30, 45, 60, 90min post glucose dose.
Glucose values were entered into an Excel sheet and graphed in GraphPad Prism. The following were calculated from Prism: Change from -30 to 0 BSLN Glucose, Raw Glucose AUC -30 to 90min, Delta Glucose AUC -30 to 90min, Raw Glucose AUC 0 to 90min, Delta Glucose AUC 0 to 90min.

Row | SMILES | DIO Lowering Glucose AUC ([1]; 3 mg/kg) [%] | DIO Lowering Glucose AUC ([1]; 10 mg/kg) [%] | GPR120 C57bl6 Mouse IPGTT Results ([2]; 10.0 mg/kg) | further results
1 | Cc1ccc(-n2ccc(C(F)(F)F)c2COc2c(F)cc(CCC(=O)O)cc2F)cc1 [Compound 39, 3-(3,5-Difluoro-4-{[1-(4-methylphenyl)-3-(trifluoromethyl)-1H-pyrrol-2-yl]methoxy}phenyl)propanoic acid] | -59 | -68 | – | –
2 | Cc1c(CCC(=O)O)ccc(OCc2cccn2-c2ccc(Cl)cc2)c1C [Compound 1, 3-(4-{[1-(4-Chlorophenyl)-1H-pyrrol-2-yl]methoxy}-2,3-dimethylphenyl)propanoic acid] | – | – | – | GPR120 C57bl6 Mouse IPGTT Results ([2]; 30.0 mg/kg): not different from vehicle
3 | CCc1ccc(-n2ccc(C(F)(F)F)c2COc2ccc(CCC(=O)O)c(F)c2F)cc1 [Compound 34, 3-(4-{[1-(4-Ethylphenyl)-3-(trifluoromethyl)-1H-pyrrol-2-yl]methoxy}-2,3-difluorophenyl)propanoic acid] | -27 | -50 | – | –
4 | CCc1ccc(-n2ccc(C(F)(F)F)c2COc2c(F)cc(CCCO)cc2F)cc1 [Compound 33, 3-(4-{[1-(4-Ethylphenyl)-3-(trifluoromethyl)-1H-pyrrol-2-yl]methoxy}-3,5-difluorophenyl)propan-1-ol] | – | – | -26 | –
5 | O=C(O)CCc1cc(F)c(OCc2c(C(F)(F)F)ccn2-c2ccc(Cl)cc2)c(F)c1 [Compound 70, 3-(4-{[1-(4-Chlorophenyl)-3-(trifluoromethyl)-1H-pyrrol-2-yl]methoxy}-3,5-difluorophenyl)propanoic acid] | -79 | -82 | – | Lowering Glucose AUC ([1]; 0.1 mg/kg): 9%; Lowering Glucose AUC ([1]; 0.3 mg/kg): -8%; Lowering Glucose AUC ([1]; 1.0 mg/kg): -54%; Lowering Glucose AUC ([1]; 3.0 mg/kg): -73%
6 | OCCCc1cc(F)c(OCc2c(C(F)(F)F)ccn2-c2ccc(Br)cc2)c(F)c1 [Compound 30, 3-(4-{[1-(4-Bromophenyl)-3-(trifluoromethyl)-1H-pyrrol-2-yl]methoxy}-3,5-difluorophenyl)propan-1-ol] | – | – | -53 | C57bl6 Mouse IPGTT dose response ([2]; 1 mg/kg): 1%; C57bl6 Mouse IPGTT dose response ([2]; 3 mg/kg): -14%; C57bl6 Mouse IPGTT dose response ([2]; 10 mg/kg): -48%
7 | COc1ccc(-n2ccc(C(F)(F)F)c2COc2c(F)cc(CCCO)cc2F)cc1 [Compound 31, 3-(3,5-Difluoro-4-{[1-(4-methoxyphenyl)-3-(trifluoromethyl)-1H-pyrrol-2-yl]methoxy}phenyl)propan-1-ol] | – | – | -43 | C57bl6 Mouse IPGTT dose response ([2]; 1 mg/kg): 2%; C57bl6 Mouse IPGTT dose response ([2]; 3 mg/kg): -39%; C57bl6 Mouse IPGTT dose response ([2]; 10 mg/kg): -44%
8 | Cc1ccc(-n2ccc(C(F)(F)F)c2COc2c(F)cc(CCCO)cc2F)cc1 [Compound 37, 3-(3,5-Difluoro-4-{[1-(4-methylphenyl)-3-(trifluoromethyl)-1H-pyrrol-2-yl]methoxy}phenyl)propan-1-ol] | – | – | -30 | –
9 | COc1ccc(-n2ccc(C(F)(F)F)c2COc2ccc(CCCO)c(F)c2F)cc1 [Compound 27, 3-(2,3-Difluoro-4-{[1-(4-methoxyphenyl)-3-(trifluoromethyl)-1H-pyrrol-2-yl]methoxy}phenyl)propan-1-ol] | – | – | -16 | –
